Experimental data: ChEMBL document CHEMBL4725389, “Novel Blocker of Onco SK3 Channels Derived from Scorpion Toxin Tamapin and Active against Migration of Cancer Cells” (ACS Med Chem Lett, 2020)
The source made the active and inactive calls. The rule behind the calls is not given here. Positions of bridges follow the written chain, without caps; N, C: chain ends. Residues, ends and D or L forms follow the SMILES beside them.

What was measured:
[1] = biological target: Small conductance calcium-activated potassium channel protein 2 (Rattus norvegicus) (UniProt P70604); experiment: Inhibition of recombinant rat SK2 expressed in HEK293 cells at 10 nM and holding potential at 0 mV and ramp voltage from -100 to 100 mV by whole cell patch clamp method relative to control; format: cell-based
Sequence of Small conductance calcium-activated potassium channel protein 2 (Rattus norvegicus) (P70604 whole entry): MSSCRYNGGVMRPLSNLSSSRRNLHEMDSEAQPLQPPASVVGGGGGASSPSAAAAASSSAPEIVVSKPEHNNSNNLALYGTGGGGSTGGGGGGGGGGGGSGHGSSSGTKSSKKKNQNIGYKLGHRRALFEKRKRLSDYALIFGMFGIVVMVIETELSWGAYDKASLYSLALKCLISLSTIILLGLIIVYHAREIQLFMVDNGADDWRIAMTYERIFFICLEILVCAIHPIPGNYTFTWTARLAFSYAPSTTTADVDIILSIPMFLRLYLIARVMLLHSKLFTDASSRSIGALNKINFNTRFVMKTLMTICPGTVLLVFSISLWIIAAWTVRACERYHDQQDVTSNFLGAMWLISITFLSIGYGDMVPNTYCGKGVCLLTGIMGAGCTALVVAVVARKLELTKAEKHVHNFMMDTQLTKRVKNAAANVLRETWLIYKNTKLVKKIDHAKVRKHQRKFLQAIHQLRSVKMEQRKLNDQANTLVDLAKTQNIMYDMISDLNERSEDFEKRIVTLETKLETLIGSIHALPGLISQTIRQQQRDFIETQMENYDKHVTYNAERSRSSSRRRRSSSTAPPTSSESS

[2] = biological target: Small conductance calcium-activated potassium channel protein 3 (Homo sapiens, UniProt Q9UGI6); experiment: Inhibition of recombinant human SK3 expressed in HEK293T cells at 10 nM and holding potential at 0 mV and ramp voltage from -100 to 100 mV by whole cell patch clamp method relative to control; format: cell-based; details: HEK-293T
Sequence of Small conductance calcium-activated potassium channel protein 3 (Q9UGI6 whole entry): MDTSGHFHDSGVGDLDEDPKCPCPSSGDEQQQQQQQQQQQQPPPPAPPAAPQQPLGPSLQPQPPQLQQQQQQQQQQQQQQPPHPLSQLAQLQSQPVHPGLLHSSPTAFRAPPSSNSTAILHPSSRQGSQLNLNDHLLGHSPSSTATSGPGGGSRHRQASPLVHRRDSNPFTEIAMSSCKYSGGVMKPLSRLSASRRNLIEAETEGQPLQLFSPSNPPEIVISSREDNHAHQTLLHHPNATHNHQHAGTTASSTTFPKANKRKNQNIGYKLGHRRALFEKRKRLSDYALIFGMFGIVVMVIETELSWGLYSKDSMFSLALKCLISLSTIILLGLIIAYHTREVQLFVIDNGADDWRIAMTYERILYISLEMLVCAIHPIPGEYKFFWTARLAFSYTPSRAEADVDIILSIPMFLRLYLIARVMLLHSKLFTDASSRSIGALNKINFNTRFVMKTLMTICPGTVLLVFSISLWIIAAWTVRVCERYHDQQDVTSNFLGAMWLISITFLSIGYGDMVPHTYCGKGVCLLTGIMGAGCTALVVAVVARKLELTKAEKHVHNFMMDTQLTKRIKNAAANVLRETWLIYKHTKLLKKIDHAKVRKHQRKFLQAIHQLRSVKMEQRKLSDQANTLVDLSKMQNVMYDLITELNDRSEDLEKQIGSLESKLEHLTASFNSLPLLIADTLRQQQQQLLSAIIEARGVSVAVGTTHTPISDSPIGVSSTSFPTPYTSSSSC

Structure (SMILES)	inhibition [1] [%]	inhibition [2]
CC[C@H](C)[C@@H]1NC(=O)[C@@H]2CSSC[C@H](NC(=O)[C@H](Cc3ccccc3)NC(=O)[C@H](C)N)C(=O)N[C@@H](CC(N)=O)C(=O)N[C@@H](CC(C)C)C(=O)N[C@@H](CCCNC(=N)N)C(=O)N[C@@H](CCCNC(=N)N)C(=O)N[C@H]3CSSC[C@H](NC(=O)[C@H](CCC(=O)O)NC(=O)[C@H](CCC(=O)O)NC(=O)CNC1=O)C(=O)N[C@@H](CCCCN)C(=O)N[C@H](C(=O)N[C@H](C(=O)N1CCC[C@H]1C(=O)N[C@@H](Cc1ccc(O)cc1)C(=O)O)C(C)C)CSSC[C@H](NC(=O)[C@H](CO)NC(=O)[C@H](CC(C)C)NC(=O)[C@H](CCC(=O)O)NC3=O)C(=O)N[C@@H](CCCNC(=N)N)C(=O)N[C@@H](CO)C(=O)N[C@@H](CC(C)C)C(=O)NCC(=O)N[C@@H](CC(C)C)C(=O)N[C@@H](CC(C)C)C(=O)NCC(=O)N[C@@H](C)C(=O)N2 (H-AFCNLRRCELSCRSLGLLGACIGEECKCVPY-OH; disulfide 3-21, 8-26, 12-28)	> 85	inactive
CC[C@H](C)[C@@H]1NC(=O)[C@@H]2CSSC[C@H](NC(=O)[C@H](Cc3ccccc3)NC(=O)[C@H](C)N)C(=O)N[C@@H](CC(N)=O)C(=O)N[C@@H](CC(C)C)C(=O)N[C@@H](CCCNC(=N)N)C(=O)N[C@@H](CCCNC(=N)N)C(=O)N[C@H]3CSSC[C@H](NC(=O)[C@H](CCC(=O)O)NC(=O)[C@H](CCC(=O)O)NC(=O)CNC1=O)C(=O)N[C@@H](CCCCN)C(=O)N[C@H](C(=O)N[C@H](C(=O)N1CCC[C@H]1C(=O)N[C@@H](Cc1ccc(O)cc1)C(=O)O)C(C)C)CSSC[C@H](NC(=O)[C@H](CO)NC(=O)[C@H](CC(C)C)NC(=O)[C@H](CCC(=O)O)NC3=O)C(=O)N[C@@H](CCCNC(=N)N)C(=O)N[C@@H](CO)C(=O)N[C@@H](CC(C)C)C(=O)NCC(=O)N[C@@H](CC(C)C)C(=O)N[C@@H](CC(C)C)C(=O)NCC(=O)N[C@@H](CCC(=O)O)C(=O)N2 (H-AFCNLRRCELSCRSLGLLGECIGEECKCVPY-OH; disulfide 3-21, 8-26, 12-28)	> 85	< 39%
CC[C@H](C)[C@@H]1NC(=O)[C@@H]2CSSC[C@H](NC(=O)[C@H](Cc3ccccc3)NC(=O)[C@H](C)N)C(=O)N[C@@H](CC(N)=O)C(=O)N[C@@H](CC(C)C)C(=O)N[C@@H](CCCNC(=N)N)C(=O)N[C@@H](CCCNC(=N)N)C(=O)N[C@H]3CSSC[C@H](NC(=O)[C@H](C)NC(=O)[C@H](CCC(=O)O)NC(=O)CNC1=O)C(=O)N[C@@H](CCCCN)C(=O)N[C@H](C(=O)N[C@H](C(=O)N1CCC[C@H]1C(=O)N[C@@H](Cc1ccc(O)cc1)C(=O)O)C(C)C)CSSC[C@H](NC(=O)[C@H](CO)NC(=O)[C@H](CC(C)C)NC(=O)[C@H](CCC(=O)O)NC3=O)C(=O)N[C@@H](CCCNC(=N)N)C(=O)N[C@@H](CO)C(=O)N[C@@H](CC(C)C)C(=O)NCC(=O)N[C@@H](CC(C)C)C(=O)N[C@@H](CC(C)C)C(=O)NCC(=O)N[C@@H](CCCCN)C(=O)N2 (H-AFCNLRRCELSCRSLGLLGKCIGEACKCVPY-OH; disulfide 3-21, 8-26, 12-28)	< 39	40%
CC[C@H](C)[C@@H]1NC(=O)[C@@H]2CSSC[C@H](NC(=O)[C@H](Cc3ccccc3)NC(=O)[C@H](C)N)C(=O)N[C@@H](CC(N)=O)C(=O)N[C@@H](CC(C)C)C(=O)N[C@@H](CCCNC(=N)N)C(=O)N[C@@H](CCCNC(=N)N)C(=O)N[C@H]3CSSC[C@H](NC(=O)[C@H](CCC(=O)O)NC(=O)[C@H](CCC(=O)O)NC(=O)CNC1=O)C(=O)N[C@@H](C)C(=O)N[C@H](C(=O)N[C@H](C(=O)N1CCC[C@H]1C(=O)N[C@@H](Cc1ccc(O)cc1)C(=O)O)C(C)C)CSSC[C@H](NC(=O)[C@H](CO)NC(=O)[C@H](CC(C)C)NC(=O)[C@H](CCC(=O)O)NC3=O)C(=O)N[C@@H](CCCNC(=N)N)C(=O)N[C@@H](CO)C(=O)N[C@@H](CC(C)C)C(=O)NCC(=O)N[C@@H](CC(C)C)C(=O)N[C@@H](CC(C)C)C(=O)NCC(=O)N[C@@H](CCCCN)C(=O)N2 (H-AFCNLRRCELSCRSLGLLGKCIGEECACVPY-OH; disulfide 3-21, 8-26, 12-28)	< 39	40%
CC[C@H](C)[C@@H]1NC(=O)[C@@H]2CSSC[C@H](NC(=O)[C@H](Cc3ccccc3)NC(=O)[C@H](C)N)C(=O)N[C@@H](CC(N)=O)C(=O)N[C@@H](CC(C)C)C(=O)N[C@@H](CCCNC(=N)N)C(=O)N[C@@H](CCCNC(=N)N)C(=O)N[C@H]3CSSC[C@H](NC(=O)[C@H](CCC(=O)O)NC(=O)[C@H](CCC(=O)O)NC(=O)CNC1=O)C(=O)N[C@@H](CCC(=O)O)C(=O)N[C@H](C(=O)N[C@H](C(=O)N1CCC[C@H]1C(=O)N[C@@H](Cc1ccc(O)cc1)C(=O)O)C(C)C)CSSC[C@H](NC(=O)[C@H](CO)NC(=O)[C@H](CC(C)C)NC(=O)[C@H](CCC(=O)O)NC3=O)C(=O)N[C@@H](CCCNC(=N)N)C(=O)N[C@@H](CO)C(=O)N[C@@H](CC(C)C)C(=O)NCC(=O)N[C@@H](CC(C)C)C(=O)N[C@@H](CC(C)C)C(=O)NCC(=O)N[C@@H](CCCCN)C(=O)N2 (H-AFCNLRRCELSCRSLGLLGKCIGEECECVPY-OH; disulfide 3-21, 8-26, 12-28)	< 39	40%
CC[C@H](C)[C@@H]1NC(=O)[C@@H]2CSSC[C@H](NC(=O)[C@H](Cc3ccccc3)NC(=O)[C@H](C)N)C(=O)N[C@@H](CC(N)=O)C(=O)N[C@@H](CC(C)C)C(=O)N[C@@H](CCCNC(=N)N)C(=O)N[C@@H](CCCNC(=N)N)C(=O)N[C@H]3CSSC[C@H](NC(=O)[C@H](CCC(=O)O)NC(=O)[C@H](CCC(=O)O)NC(=O)CNC1=O)C(=O)N[C@@H](CCCCN)C(=O)N[C@H](C(=O)N[C@H](C(=O)N1CCC[C@H]1C(=O)N[C@@H](C)C(=O)O)C(C)C)CSSC[C@H](NC(=O)[C@H](CO)NC(=O)[C@H](CC(C)C)NC(=O)[C@H](CCC(=O)O)NC3=O)C(=O)N[C@@H](CCCNC(=N)N)C(=O)N[C@@H](CO)C(=O)N[C@@H](CC(C)C)C(=O)NCC(=O)N[C@@H](CC(C)C)C(=O)N[C@@H](CC(C)C)C(=O)NCC(=O)N[C@@H](CCCCN)C(=O)N2 (H-AFCNLRRCELSCRSLGLLGKCIGEECKCVPA-OH; disulfide 3-21, 8-26, 12-28)	40	< 39%
CC[C@H](C)[C@@H]1NC(=O)[C@@H]2CSSC[C@H](NC(=O)[C@H](Cc3ccccc3)NC(=O)[C@H](C)N)C(=O)N[C@@H](CC(N)=O)C(=O)N[C@@H](CC(C)C)C(=O)N[C@@H](CCCNC(=N)N)C(=O)N[C@@H](CCCNC(=N)N)C(=O)N[C@H]3CSSC[C@H](NC(=O)[C@H](CCC(=O)O)NC(=O)[C@H](CCC(=O)O)NC(=O)CNC1=O)C(=O)N[C@@H](CCCCN)C(=O)N[C@H](C(=O)N[C@H](C(=O)N1CCC[C@H]1C(=O)N[C@@H](Cc1c[nH]cn1)C(=O)O)C(C)C)CSSC[C@H](NC(=O)[C@H](CO)NC(=O)[C@H](CC(C)C)NC(=O)[C@H](CCC(=O)O)NC3=O)C(=O)N[C@@H](CCCNC(=N)N)C(=O)N[C@@H](CO)C(=O)N[C@@H](CC(C)C)C(=O)NCC(=O)N[C@@H](CC(C)C)C(=O)N[C@@H](CC(C)C)C(=O)NCC(=O)N[C@@H](CCCCN)C(=O)N2 (H-AFCNLRRCELSCRSLGLLGKCIGEECKCVPH-OH; disulfide 3-21, 8-26, 12-28)	40	< 39%
CC[C@H](C)[C@@H]1NC(=O)[C@@H]2CSSC[C@H](NC(=O)[C@H](Cc3ccccc3)NC(=O)[C@H](C)N)C(=O)N[C@@H](CC(N)=O)C(=O)N[C@@H](CC(C)C)C(=O)N[C@@H](CCCNC(=N)N)C(=O)N[C@@H](CCCNC(=N)N)C(=O)N[C@H]3CSSC[C@H](NC(=O)[C@H](CCC(=O)O)NC(=O)[C@H](CCC(=O)O)NC(=O)CNC1=O)C(=O)N[C@@H](CCCCN)C(=O)N[C@H](C(=O)N[C@H](C(=O)N1CCC[C@H]1C(=O)N[C@@H](Cc1ccc(O)cc1)C(=O)N[C@@H](CC(N)=O)C(=O)O)C(C)C)CSSC[C@H](NC(=O)[C@H](CO)NC(=O)[C@H](CC(C)C)NC(=O)[C@H](CCC(=O)O)NC3=O)C(=O)N[C@@H](CCCNC(=N)N)C(=O)N[C@@H](CO)C(=O)N[C@@H](CC(C)C)C(=O)NCC(=O)N[C@@H](CC(C)C)C(=O)N[C@@H](CC(C)C)C(=O)NCC(=O)N[C@@H](CCCCN)C(=O)N2 (H-AFCNLRRCELSCRSLGLLGKCIGEECKCVPYN-OH; disulfide 3-21, 8-26, 12-28)	40	< 39%
CC[C@H](C)[C@@H]1NC(=O)[C@@H]2CSSC[C@H](NC(=O)[C@H](Cc3ccccc3)NC(=O)[C@H](C)N)C(=O)N[C@@H](CC(N)=O)C(=O)N[C@@H](CC(C)C)C(=O)N[C@@H](CCCNC(=N)N)C(=O)N[C@@H](CCCNC(=N)N)C(=O)N[C@H]3CSSC[C@H](NC(=O)[C@H](CCC(=O)O)NC(=O)[C@H](CCC(=O)O)NC(=O)CNC1=O)C(=O)N[C@@H](CCCCN)C(=O)N[C@H](C(=O)N[C@H](C(=O)N[C@@H](Cc1ccc(O)cc1)C(=O)O)C(C)C)CSSC[C@H](NC(=O)[C@H](CO)NC(=O)[C@H](CC(C)C)NC(=O)[C@H](CCC(=O)O)NC3=O)C(=O)N[C@@H](CCCNC(=N)N)C(=O)N[C@@H](CO)C(=O)N[C@@H](CC(C)C)C(=O)NCC(=O)N[C@@H](CC(C)C)C(=O)N[C@@H](CC(C)C)C(=O)NCC(=O)N[C@@H](CCCCN)C(=O)N2 (H-AFCNLRRCELSCRSLGLLGKCIGEECKCVY-OH; disulfide 3-21, 8-26, 12-28)	40	< 39%
CC[C@H](C)[C@@H]1NC(=O)[C@@H]2CSSC[C@H](NC(=O)[C@H](Cc3ccccc3)NC(=O)[C@H](C)N)C(=O)N[C@@H](CC(N)=O)C(=O)N[C@@H](CC(C)C)C(=O)N[C@@H](CCCNC(=N)N)C(=O)N[C@@H](CCCNC(=N)N)C(=O)N[C@H]3CSSC[C@H](NC(=O)[C@H](CCC(=O)O)NC(=O)[C@H](CCC(=O)O)NC(=O)CNC1=O)C(=O)N[C@@H](CCCCN)C(=O)N[C@H](C(=O)N[C@H](C(=O)N[C@@H](Cc1ccc(O)cc1)C(=O)N[C@@H](CC(N)=O)C(=O)O)C(C)C)CSSC[C@H](NC(=O)[C@H](CO)NC(=O)[C@H](CC(C)C)NC(=O)[C@H](CCC(=O)O)NC3=O)C(=O)N[C@@H](CCCNC(=N)N)C(=O)N[C@@H](CO)C(=O)N[C@@H](CC(C)C)C(=O)NCC(=O)N[C@@H](CC(C)C)C(=O)N[C@@H](CC(C)C)C(=O)NCC(=O)N[C@@H](CCCCN)C(=O)N2 (H-AFCNLRRCELSCRSLGLLGKCIGEECKCVYN-OH; disulfide 3-21, 8-26, 12-28)	40	< 39%
